Results as given in PubChem BioAssay (NCI).
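Each compound was tested at five concentrations against cells in 96-well plates for 48 hours. Abbreviation: GI50, concentration required for 50% inhibition of growth. The concentration for full growth arrest is given as TGI.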

Columns and labels:
Assay in all cases: NCI tumour cell line growth inhibition, 48 h
[1] = tested on: 786-0 renal
[2] = tested on: A498 renal
[3] = tested on: A549 NSCLC
[4] = tested on: ACHN renal
[5] = tested on: BT-549 breast
[6] = tested on: CAKI-1 renal
[7] = tested on: CCRF-CEM leukemia
[8] = tested on: COLO 205 colon
[9] = tested on: DU-145 prostate
[10] = tested on: EKVX NSCLC
[11] = tested on: HCC-2998 colon
[12] = tested on: HCT-116 colon
[13] = tested on: HCT-15 colon
[14] = tested on: HL-60(TB) leukemia
[15] = tested on: HOP-62 NSCLC
[16] = tested on: HOP-92 NSCLC
[17] = tested on: HS 578T breast
[18] = tested on: HT29 colon
[19] = tested on: IGROV1 ovarian
[20] = tested on: K-562 leukemia
[21] = tested on: KM12 colon
[22] = tested on: LOX IMVI melanoma
[23] = tested on: M14 melanoma
[24] = tested on: MALME-3M melanoma
[25] = tested on: MCF7 breast
[26] = tested on: MDA-MB-231 breast
[27] = tested on: MDA-MB-435
[28] = tested on: MDA-MB-468 breast
[29] = tested on: MOLT-4 leukemia
[30] = tested on: NCI-H226 lung
[31] = tested on: NCI-H23 lung
[32] = tested on: NCI-H460 lung
[33] = tested on: NCI-H522 lung
[34] = tested on: NCI/ADR-RES ovarian
[35] = tested on: OVCAR-3 ovarian
[36] = tested on: OVCAR-4 ovarian
[37] = tested on: OVCAR-5 ovarian
[38] = tested on: OVCAR-8 ovarian
[39] = tested on: PC-3 prostate
[40] = tested on: RPMI-8226 leukemia
[41] = tested on: RXF 393 renal
[42] = tested on: SF-268 CNS
[43] = tested on: SF-295 CNS
[44] = tested on: SF-539 CNS
[45] = tested on: SK-MEL-2 melanoma
[46] = tested on: SK-MEL-28 melanoma
[47] = tested on: SK-MEL-5 melanoma
[48] = tested on: SK-OV-3 ovarian
[49] = tested on: SN12C renal
[50] = tested on: SNB-19 CNS
[51] = tested on: SNB-75 CNS
[52] = tested on: SR leukemia
[53] = tested on: SW-620 colon
[54] = tested on: T-47D breast
[55] = tested on: TK-10 renal
[56] = tested on: U251 CNS
[57] = tested on: UACC-257 melanoma
[58] = tested on: UACC-62 melanoma
[59] = tested on: UO-31 renal

NS(=O)(=O)c1ccc(N2N=C(c3ccc(NC(=O)Nc4ccccc4)cc3)CC2c2ccc(Br)cc2)cc1 (configuration not stated)
GI50 [1]: 2.95 µM | TGI [1]: 10.1 µM | GI50 [2]: 1.98 µM | TGI [2]: 4.99 µM | GI50 [3]: 3.08 µM | TGI [3]: 11.3 µM | GI50 [4]: 2.88 µM | TGI [4]: 8.93 µM | GI50 [5]: 2.03 µM | TGI [5]: 4.22 µM | GI50 [6]: 2.64 µM | TGI [6]: 8.44 µM | GI50 [7]: 2.34 µM | TGI [7]: 5.95 µM | GI50 [8]: 1.79 µM | TGI [8]: 3.39 µM | GI50 [9]: 2.87 µM | TGI [9]: 8.67 µM | GI50 [10]: 3.19 µM | TGI [10]: 13.6 µM | GI50 [11]: 1.6 µM | TGI [11]: 3.06 µM | GI50 [12]: 1.75 µM | TGI [12]: 3.56 µM | GI50 [13]: 2.58 µM | TGI [13]: 10.1 µM | GI50 [14]: 2.12 µM | TGI [14]: 5.59 µM | GI50 [15]: 2.01 µM | TGI [15]: 4.78 µM | GI50 [16]: 1.98 µM | TGI [16]: 5.24 µM | GI50 [17]: 2.52 µM | TGI [17]: 7.86 µM | GI50 [18]: 1.92 µM | TGI [18]: 4.53 µM | GI50 [19]: 2.86 µM | TGI [19]: 10.6 µM | GI50 [20]: 3.16 µM | TGI [20]: > 100 µM | GI50 [21]: 2.62 µM | TGI [21]: 6.92 µM | GI50 [22]: 1.73 µM | TGI [22]: 3.12 µM | GI50 [23]: 2.11 µM | TGI [23]: 4.5 µM | GI50 [24]: 2.15 µM | TGI [24]: 5.76 µM | GI50 [25]: 2.6 µM | TGI [25]: 10.2 µM | GI50 [26]: 1.93 µM | TGI [26]: 4.03 µM | GI50 [27]: 2.02 µM | TGI [27]: 7.47 µM | GI50 [28]: 2.01 µM | TGI [28]: 5.38 µM | GI50 [29]: 2.66 µM | TGI [29]: 11.4 µM | GI50 [30]: 2.34 µM | TGI [30]: 6.76 µM | GI50 [31]: 1.85 µM | TGI [31]: 3.73 µM | GI50 [32]: 1.92 µM | TGI [32]: 4.25 µM | GI50 [33]: 2.67 µM | TGI [33]: 8.23 µM | GI50 [34]: 1.91 µM | TGI [34]: 4 µM | GI50 [35]: 1.86 µM | TGI [35]: 4.34 µM | GI50 [36]: 2.55 µM | TGI [36]: 10.5 µM | GI50 [37]: 2.14 µM | TGI [37]: 5.4 µM | GI50 [38]: 3.55 µM | TGI [38]: 16.1 µM | GI50 [39]: 2.73 µM | TGI [39]: 9.76 µM | GI50 [40]: 2.11 µM | TGI [40]: 5.26 µM | GI50 [41]: 1.82 µM | TGI [41]: 4.96 µM | GI50 [42]: 2.63 µM | TGI [42]: 11.2 µM | GI50 [43]: 3.18 µM | TGI [43]: 12.7 µM | GI50 [44]: 2.06 µM | TGI [44]: 4.63 µM | GI50 [45]: 5.38 µM | TGI [45]: 19.9 µM | GI50 [46]: 2.66 µM | TGI [46]: 7.26 µM | GI50 [47]: 1.77 µM | TGI [47]: 3.39 µM | GI50 [48]: 3.48 µM | TGI [48]: 14.2 µM | GI50 [49]: 1.68 µM | TGI [49]: 3.15 µM | GI50 [50]: 4.11 µM | TGI [50]: 15.7 µM | GI50 [51]: 1.76 µM | TGI [51]: 11.7 µM | GI50 [52]: 2.71 µM | TGI [52]: 9.08 µM | GI50 [53]: 2.5 µM | GI50 [54]: 2.87 µM | TGI [54]: 11.6 µM | GI50 [55]: 3.13 µM | TGI [55]: 12.4 µM | GI50 [56]: 2.72 µM | TGI [56]: 8.65 µM | GI50 [57]: 5.32 µM | TGI [57]: 20.4 µM | GI50 [58]: 1.64 µM | TGI [58]: 3.23 µM | GI50 [59]: 2.57 µM | TGI [59]: 10.7 µM
